Where a name gives a salt, the structure may show the parent alone.
Key:
[1] = tested on: CD4+/CD8+ T-cells; test: Flow cytometry of T-cell populations (naive, effector and central memory) in 4T1 mice; format: in vivo, mouse
Description: FIG. 5 is a graphical representation showing that dual epigenetic-immunotherapy re-educates and re-programs the T-cell repertoire. A. Cells stimulated with PMA/ionomycin for 4 hours in the presence of Brefeldin A. Cells were surfaced stained with CD45, CD3, CD4, CD8, CD44, CD62L (for naïve, effector and central memory), CD25 and FoxP3 (for Tregs) and analyzed via Flow cytometry. A Mann-Whitney non-parametric t-test was used to compare control vs other groups (*p<0.05, n=2-5). […] Representative images for each dataset are shown. TNFI values for EOMES, TBET and Ki67 measured using Image) to select the nucleus minus background. Graphs represent the % change of expression relative to control group for CD8^+ T-cells. (n>20 individual cells, Group A=Control, Group C: PD1 (10 mg/kg), Group D: Phenelzine (40 mg/kg), Group F: PD1+Phenelzine). C. Cells stimulated with PMA/ionomycin for 4 hours in the presence of Brefeldin A. Cell were surfaced stained with CD45, CD3, CD4, CD8 and intracellular staining of IFN-γ, IL-2 and TNF-α in the presence of Brefeldin A and analyzed via flow cytometry. A Mann-Whitney non-parametric t-test was used to compare control vs other groups (*p<0.05, **p<0.008; n=2-5). […] Representative images for each dataset are shown. TNFI values for TNFα and IFNγ measured using ImageJ to select the nucleus minus background. […]

[2] = tested on: CD133, ALDH1A and ABCB5; test: Immunofluorescence of cancer cells from primary tumor micro-environment, chemo-resistant stem-like signature panel; format: in vivo, mouse; conditions: cancer cells from primary TME; % change relative to vehicle control
Description: FIG. 2 is a graphical and photographic representation showing the efficacy of dual phenelzine sulfate (phenelzine) and anti-PD1 antibody (PD1) therapy on circulating tumor cells (CTCs) and cancer stem cells (CSC) as well as tumor burden. A. Statistics of tumor volumes on day 15 post-treatment. A Mann-Whitney non-parametric t-test was used to compare control vs other groups (*p<0.02, **p<0.008). Group A=Control, Group C: PD1 (10 mg/kg), Group D: Phenelzine (40 mg/kg), Group F: PD1+Phenelzine. Illustration of the treatment protocol is also shown. […] Representative images for each dataset are shown. […] C. […] (a) Representative images for each dataset are shown. (b) Graph represents the TCFI values for CD133 TNFI for ALDH1A and TFI for ABCB5 measured using ImageJ to select the nucleus/cytoplasm minus background (n>20 individual cells, Group A=Control, Group C: PD1 (10 mg/kg), Group D: Phenelzine (40 mg/kg), Group F: PD1+Phenelzine).
FIG. 11 is a photographic and graphical representation showing triple therapy efficacy on CTC/CSC and tumor burden. A. Statistics of tumor volumes on day 15 post-treatment. […] (b) Graph represents the TCFI values for CD133 TNFI for ALDH1A and TFI for ABCB5 measured using ImageJ to select the nucleus/cytoplasm minus background (n>20 individual cells, Group A=Control, Group B: Abraxane (30 mg/kg), Group C: anti-PD1 (10 mg/kg), Group D: Phenelzine (40 mg/kg), Group E: Abraxane+PD1, Group F: PD1+Phenelzine, Group G: Abraxane+Phenelzine, Group H: Triple Therapy).
Next, the cancer cells were assessed for expression of a chemo-resistant, stem-like biomarker signature biomarker panel (CD133, ALDH1A and ABCB5).
A total of 2×10^5 cells were injected per mouse into mammary gland in 50 μL of phosphate buffered saline (PBS). […] Tumors were measured using calipers and the tumor volumes (mm3) were calculated using the formula (length×width2)/2. ? arvested cells from primary tumors where then cytospun ? -treated with poly-1-lysine and fixed then stored in PBS for IFA Microscopy Analysis. […]

In the case of `NNCCc1ccccc1` (racemic) [phenelzine sulfate, (±)-2-phenylethylhydrazine], the “CD8+ central memory and effector memory populations” value [1] is reported as “enhance”, the “expression of ABCB5” value [2] is reported as “strongly inhibited” and the “expression of ALDH1A” value [2] is reported as “did not significantly affect”. The “expression of CD133” value [2] was “did not significantly affect”.

Source: US20210186905A1, “ENHANCING T-CELL FUNCTION AND TREATING A T-CELL DYSFUNCTIONAL DISORDER WITH A COMBINATION OF AN LSD INHIBITOR AND A PD-1 BINDING ANTAGONIST” (EpiAxis Therapeutic Pty Ltd, priority 2017, published 2021)
